Key:
Assay in all cases: relative viability (nuclei count vs DMSO), 5 days (fraction); higher = more cells survive
RU-SKI 43 + Decitabine = compound: CC[C@@H](C)CNCC(=O)N1CCC2=C([C@@H]1COC3=CC=CC(=C3)C)C=CS2 [RU-SKI 43] + Nc1ncn([C@H]2C[C@H](O)[C@@H](CO)O2)c(=O)n1 [Decitabine] (partner 2 µM)
Summary of the method: (§1)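 Lung cancer cell lines were pin-tool dosed in 1536-well plates on the day after seeding, with either a lone drug or a fixed anchor-drug dose plus five library-drug doses (not always all listed) in √10 steps. Nuclei were counted on 4× images after 5 days. Relative viability is the ratio of treated-well to vehicle-well nuclei counts, with each value a median of duplicate plates.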

MK-8033 + Palbociclib = compound: Cn1cc(-c2cnc3ccc4ccc(CS(=O)(=O)NCc5ccccn5)cc4c(=O)c3c2)cn1 [MK-8033] + CC(=O)c1c(C)c2cnc(Nc3ccc(N4CCNCC4)cn3)nc2n(C2CCCC2)c1=O [Palbociclib] (partner 0.5 µM)
Summary of the method: as §1

RU-SKI 43 + OSI-027 = compound: CC[C@@H](C)CNCC(=O)N1CCC2=C([C@@H]1COC3=CC=CC(=C3)C)C=CS2 [RU-SKI 43] + COc1cccc2cc(-c3nc([C@H]4CC[C@H](C(=O)O)CC4)n4ncnc(N)c34)[nH]c12 [OSI-027] (partner 0.5 µM)
Summary of the method: as §1

RU-SKI 43 + Crizotinib = compound: CC[C@@H](C)CNCC(=O)N1CCC2=C([C@@H]1COC3=CC=CC(=C3)C)C=CS2 [RU-SKI 43] + C[C@@H](Oc1cc(-c2cnn(C3CCNCC3)c2)cnc1N)c1c(Cl)ccc(F)c1Cl [Crizotinib] (partner 1 µM)
Summary of the method: as §1

Question: Which results are given for UMC-11?
Answer: relative viability (RU-SKI 43 + Decitabine; first compound 0.1 µM): 0.668; relative viability (RU-SKI 43 + Decitabine; first compound 0.3162 µM): 0.614; relative viability (RU-SKI 43 + Decitabine; first compound 1 µM): 0.675; relative viability (RU-SKI 43 + Decitabine; first compound 3.162 µM): 0.619; relative viability (RU-SKI 43 + Decitabine; first compound 10 µM): 0.64; relative viability (MK-8033 + Palbociclib; first compound 0.02 µM): 0.329; relative viability (MK-8033 + Palbociclib; first compound 0.06325 µM): 0.337; relative viability (MK-8033 + Palbociclib; first compound 0.2 µM): 0.3; relative viability (MK-8033 + Palbociclib; first compound 0.6325 µM): 0.35; relative viability (MK-8033 + Palbociclib; first compound 2 µM): 0.343; relative viability (RU-SKI 43 + OSI-027; first compound 0.1 µM): 0.534; relative viability (RU-SKI 43 + OSI-027; first compound 0.3162 µM): 0.631; relative viability (RU-SKI 43 + OSI-027; first compound 1 µM): 0.492; relative viability (RU-SKI 43 + OSI-027; first compound 3.162 µM): 0.5; relative viability (RU-SKI 43 + OSI-027; first compound 10 µM): 0.463; relative viability (RU-SKI 43 + Crizotinib; first compound 0.1 µM): 0.763; relative viability (RU-SKI 43 + Crizotinib; first compound 0.3162 µM): 0.707; relative viability (RU-SKI 43 + Crizotinib; first compound 1 µM): 0.664; relative viability (RU-SKI 43 + Crizotinib; first compound 3.162 µM): 0.654; relative viability (RU-SKI 43 + Crizotinib; first compound 10 µM): 0.399

— the supplement of paper PMC10307832
